Measurements reported in patent US20130102538A1, “METHOD OF TREATING ALZHEIMER'S DISEASE USING PHARMACOLOGICAL CHAPERONES TO INCREASE PRESENILIN FUNCTION AND GAMMA-SECRETASE ACTIVITY” (AMICUS THERAPEUTICS, INC., priority 2010, published 2013).
“Also recorded” adds a separate entry of the source. Non-standard residues stand in square brackets, D forms with d. Residues, ends and D or L forms follow the SMILES beside them. ξ: configuration not given here. *: point of attachment. Cbz = O=C(OCc1ccccc1)*; Boc = CC(C)(C)OC(=O)*; ξNle = CCCCC(N)C(=O)O

Key:
γ-secretase = γ-secretase (Homo sapiens, UniProt P49768); conditions: known IC50s of the inhibitors; read-out: IC50 (Abeta production); cited from earlier work
PS1 precursor [1] = molecular target: T1, PS1 precursor (Homo sapiens, UniProt P49768); assay: Screening of γ-secretase inhibitors for PS1 precursor (holo) enhancement, western blot; assay type: cell-based; set-up: key to PS1 Precursor Enhancement: −: no effect; +: some effect; ++: moderate effect; +++: strong effect; conditions: ~50 uM inhibitor, 24 hrs; for PS1 Precursor Enhancement: SH-SY5Y neuroblastoma cells; for PS1 precursor (45 kDa band) level / stabilization: SY5Y neuroblastomas
T1 construct: The unprocessed or precursor form of PS1 is evidenced by a band at 45 kDa; endogenous in cells; host or cells: SH-SY5Y neuroblastoma cells
Protocol: Eighteen different γ-secretase inhibitors (purchased from Calbiochem) were tested for their ability to stabilize the PS1 precursor. SH-SY5Y neuroblastoma cells (1e6) incubated in 6-well plates were dosed with ˜50 uM γ-secretase inhibitor (10% FBS, DMEM) for 24 hrs. Cells were lysed in 2% CHAPS (TBS+protease inhibitors), cell debris pelleted at 18,000 g. Total protein in cell lysates were determined by BCA and 25 ug of protein/lane loaded onto 4-12% BisTris NuPage gels (Invitrogen) that were electrophoresed at 150V for 1 hr. Gels were transferred to PVDF (25V, 1 hr) and probed with anti-N-term PS1 (1:1000, Abcam cat. #ab10281). Western blots were developed using chemiluminescence and imaged using an Alpha Innotech FluorChem Q imaging system. Γ-secretase inhibitors tested: PME, XX, XVII, X, IX, IV, II, I-40, VII, V, III, II-40, I, XIII, XVI, XIX, XXI, CW.
The mature form of PS1 (where PS1 is processed to form a heterodimer) is evidenced by a prominent band at 27 kDa (developed using an antibody specific for the N-terminus of PS1) and is present in all samples. […] The increase in PS1 precursor protein level is interpreted as stabilization of the PS1 precursor and the stabilization appears to be mechanistically distinct from the inhibition of γ-secretase activity since there is no correlation between γ-secretase inhibitory potency (IC50 for Abeta production) and levels of stabilized PS1 precursor (see Table 1).

γ-secretase complex = molecular target: T2, γ-secretase complex (Homo sapiens, UniProt P49768); assay: Native gel of intact γ-secretase complex from treated fibroblasts; assay type: cell-based; conditions: wildtype fibroblasts CRL2076, 0-100 uM for 24 hrs, 6 hr wash out
T2 construct: The mature form of presenlin is a heterodimer consisting of a ˜30 kDa NH2-terminal fragment (NTF) and a ˜20 kDa C-terminal fragment; host or cells: wild-type fibroblasts CRL2076
Protocol: Wildtype fibroblasts (CRL2076) in a 6-well plate were treated with different doses of γ-secretase inhibitor IV (0, 3.1, 6.25, 12.5, 25 and 100 uM) for 24 hrs, followed by a 6 hr wash out period. Fibroblasts were harvested by gentle scraping in TBS, collected by centrifugation (5000 g, 5 min) and lysed in 1% digitonin (50 mM NaCl, 50 mM Hepes, pH 7.3) overnight at 4° C. Nonsolubilized cell debris was removed by centrifugation (15,000 g, 10 min.). Total protein was determined by BCA and equivalent proteins loads of 40 ug/lane were separated on a 4-16% native BisTris polyacrylamide gel using Blue-Native cathode and anode buffer system (Invitrogen). The native gel was transferred to PVDF (25V, 1 hr in NuPage Transfer buffer), blocked with Blotto (Pierce) and probed with anti-N-term PS1 (1:1000, Abcam cat. #ab10281) followed by development using an anti-rabbit alkaline phosphatase conjugate, chemiluminescence detection and imaged using an Alpha Innotech FluorChem Q imaging system.

mature PS1 = molecular target: T3, mature PS1 (Homo sapiens, UniProt P49768); assay: Mature PS1 dose response to four day treatment, western blot; assay type: cell-based; conditions: SY5Y neuroblastomas, four days of treatment, different concentrations
T3 construct: The mature form of PS1 (where PS1 is processed to form a heterodimer) is evidenced by a prominent band at 27 kDa; The mature form of presenlin is a heterodimer consisting of a ˜30 kDa NH2-terminal fragment (NTF) and a ˜20 kDa C-terminal fragment; endogenous in cells; host or cells: SH-SY5Y neuroblastoma cells
Protocol: SY5Y neuroblastomas grown in 6-well plates were dosed with different concentrations of γ-secretase inhibitors IX, XXI, and XX for four days, after which the cells were harvested by centrifugation (5000 g, 5 min.), lysed in RIPA buffer (TBS, 1% TX100, 0.5% taurodeoxycholate, 0.1% SDS plus protease inhibitors) and cleared of unsolubilized cell debris by centrifugation (15,000 g, 10 min., 4 C). Total protein was determined by BCA and equivalent protein loads of 50 ug/lane were separated on a 4-12% BisTris NuPage polyacrylamide gel (Invitrogen) then transferred to PVDF (25V, 1 hr in NuPage Transfer buffer). Western blots were probed with anti-N-term PS1 (1:1000, Abcam cat. #ab10281) followed by development using an anti-rabbit alkaline phosphatase conjugate, chemiluminescence detection and imaged using an Alpha Innotech FluorChem Q imaging system. After PS1 bands were quantified using the FluorChem Q band analysis software, blots were stripped and re-probed for actin (rabbit anti-actin, Pierce Chemicals).

PS1 precursor [2] = assay: Time course of PS1 precursor enhancement, western blot; assay type: cell-based, human; conditions: 10 uM, lymphoblast cell line AG07622
Protocol: Lymphoblast cell line AG07622 was dosed in 6-well plates with 10 uM of γ-secretase inhibitor X (in 10% FBS, DMEM) for 0 hrs, 2 hrs, 4 hrs, 6 hrs and 24 hrs. Control samples containing 1% DMSO were ran in parallel to the drug treated lymphoblasts. After the specified dosing time, cells were harvested by centrifugation (5000 g, 5 min.), lysed in 2% CHAPS/TBS (with protease inhibitors) and cleared of unsolubilized cell debris by centrifugation (15,000 g, 10 min., 4 C). Total protein was determined by BCA and equivalent proteins loads of 40 ug/lane were separated on a 4-12% BisTris NuPage polyacrylamide gel (Invitrogen) then transferred to PVDF (25V, 1 hr in NuPage Transfer buffer). Western blots were probed with anti-N-term. PS1 (1:1000, Abcam cat. #ab 10281) followed by development using an anti-rabbit alkaline phosphatase conjugate, chemiluminescence detection and imaged using an Alpha Innotech FluorChem Q imaging system.

| Molecule | IC50 (γ-secretase) [nM] | PS1 Precursor Enhancement (PS1 precursor [1]) | PS1 precursor (45 kDa band) level / stabilization (PS1 precursor [1]) | band intensity / level of the γ-secretase complex (γ-secretase complex) | mature PS1 protein levels (mature PS1) | time at which increase in PS1 precursor is first evident (PS1 precursor [2]) [h] | time at which maximum PS1 precursor level is reached (PS1 precursor [2]) [h] |
| --- | --- | --- | --- | --- | --- | --- | --- |
| CC(C)CC(C=O)NC(=O)C(CC(C)C)NC(=O)OC1CC(C)CCC1C(C)C (stereo not drawn) [VII] | 2300 | − |  |  |  |  |  |
| (11S)-19-tert- butyl 1-methyl 2,14-di- sec-butyl-9,9-difluoro- 5,17-diisopropyl-11- methyl-4,8,10,15,18- pentaoxo-3,6,7,12,13,16- hexaazanon | 13000 | + | significantly increased |  |  |  |  |
| CCC(C)C(NC(=O)C=Cc1cc(OC)cc(OC)c1)C(=O)NC(C=O)CC(C)C (stereo not drawn) [I-40, trans-3,5-DMC-Ile-Leu-CHO] | 15000 | − | significantly increased |  |  |  |  |
| COC(=O)[C@@H](NC(=O)[C@H](CC(C)C)NC(=O)N(Cc1ccccc1)C[C@@H](O)[C@H](Cc1ccccc1)NC(=O)OC(C)(C)C)C(C)C [XVII, (6S,7R,12S,15S)-methyl 6,9-dibenzyl-7-hydroxy-12-isobutyl-15-isopropyl-2,2-dimethyl-4,10,13-trioxo-3-oxa-5,9,11,14-tetraazahexadecan-16-oate] | 300 | − |  |  |  |  |  |
| CC(C)CC(NC(=O)OCc1ccccc1)C(=O)NC(C=O)Cc1ccccc1 (stereo not drawn) [V] (Cbz-Leu-Phe-aldehyde; configuration not given here) | 5000 | − |  |  |  |  |  |
| CC(C)C(C=O)NC(=O)C(NC(=O)CNC(=O)OC(C)(C)C)C(C)C (stereo not drawn) [II-40] (Boc-Gly-Val-Val-aldehyde; configuration not given here) |  | − |  |  |  |  |  |
| CC(C)[C@H](NC(=O)c1ccc2ccccc2c1)C(=O)N[C@H](C=O)Cc1ccccc1 [IV, N-((S)-3-methyl-1-oxo-1-(((S)-1-oxo-3-phenylpropan-2-yl)amino)butan-2-yl)-2-naphthamide] | 2600 | ++ | significantly increased | increased levels of the γ-secretase complex; also recorded: increases as a function of increasing concentration |  |  |  |
| C[C@H](NC(=O)Cc1cc(F)cc(F)c1)C(=O)N[C@@H]1C(=O)N(C)c2ccccc2-c2ccccc21 [XX, (S)-2-(2-(3,5-difluoro-phenyl)acetamido)-N-((S)-5-methyl-6-oxo-6,7-dihydro-5H-dibenzo[b,d]azepin-7-yl)propanamide] | 1.7 | +++ | significantly increased; also recorded: do stabilize the PS1 precursor |  | dose dependent increase |  |  |
| CCC(C)C(NC(=O)[C@H](Cc1ccc(O)cc1)NC(=O)OCc1ccccc1)C(=O)N[C@H](C=O)CC(C)C (stereo partly drawn) [XIII, benzyl ((2S)-3-(4-hydroxyphenyl)-1-((3-methyl-1-(((S)-4-methyl-1-oxopentan-2-yl)amino)-1-oxopentan-2-yl)amino)-1-oxopropan-2-yl)carbamate] | 8 | + | significantly increased |  |  |  |  |
| COC(=O)[C@@H](NC(=O)[C@H](C)NC(=O)Cc1cc(F)cc(F)c1)c1ccccc1 [XVI] | 10 | − |  |  |  |  |  |
| C[C@H](NC(=O)Cc1cc(F)cc(F)c1)C(=O)N[C@H](C(=O)OC(C)(C)C)c1ccccc1 [IX, (S)-tert-butyl 2-((S)-2-(2-(3,5-difluorophenyl)acetamido)propanamido)-2-phenylacetate] |  | − | does not stabilize the PS1 precursor |  | dose dependent increase |  |  |
| CC(C)C[C@H](NC(=O)[C@H](Cc1ccccc1)C[C@@H](O)[C@H](Cc1ccccc1)NC(=O)OC(C)(C)C)C(=O)N[C@@H](Cc1ccccc1)C(N)=O [X, tert-butyl ((2S,3R,5R)-6-(((S)-1-(((S)-1-amino-1-oxo-3-phenylpropan-2-yl)amino)-4-methyl-1-oxopentan-2-yl)amino)-5-benzyl-3-hydroxy-6-oxo-1-phenylhexan-2-yl)carbamate] | 17 | +++ | significantly increased |  |  | 2 | 24 |
| O=C(O)c1cc(Oc2ccc([N+](=O)[O-])cc2)cc(Oc2ccc([N+](=O)[O-])cc2)c1 [CW] |  | − |  |  |  |  |  |
| CC(C)C[C@@H](C=O)NC(=O)[C@@H](CC(C)C)NC(=O)OCc1ccccc1 [III] | 35000 | − |  |  |  |  |  |
| CCCCC(C=O)NC(=O)[C@H](CC(C)C)NC(=O)[C@@H](CC(C)C)NC(=O)OCc1ccccc1 (stereo partly drawn) [I, benzyl ((2R)-4-methyl-1-(((2S)-4-methyl-1-oxo-1-((1-oxohexan-2-yl)amino)pentan-2-yl)amino)-1-oxopentan-2-yl)carbamate] (Cbz-[dL]-Leu-[ξNle]-aldehyde) |  | + | significantly increased |  |  |  |  |
| (2R,3R)- 3-(3,4-difluorophenyl)- 2-(4-fluorophenyl)-4- hydroxy-N-((S)-2-oxo-5- phenyl-2,3-dihydro-1H- benzo[e][1,4]diazepin-3- yl)butanamide [XIX] | 0.06 | + | significantly increased |  |  |  |  |
